This is an account of results in patent publication US20240316036A1, “DISULFIDE CONTAINING THERAPEUTICS AND DIAGNOSTICS” (Singular Genomics Systems, Inc., priority 2023, published 2024).

The nature of the test: Cleavage kinetics of cleavable linking moieties (CLM) with reducing agent THPP, compounds immobilized on a solid support. Type of test: physicochemical. The note with it: 1 mM THPP, 55° C.

Protocol: For the assay, a plurality of compounds containing the CLM was immobilized on a solid support. Next, a cleavage solution containing 10 mM THPP as a reducing agent was introduced for controlled periods of time. A second labeled compound was introduced to the solid support; compounds without a CLM will bind the labeled compounds. The cleavage reaction was carried out at 55° C., in a buffer solution at 9.5 pH. The degree of cleavage was measured as the percent of compounds that include a labeled compound as a function of time.
A similar assay as described supra was performed, except that the concentration of the reducing agent was diluted to 1 mM of THPP and the cleavage reaction was carried out at 55° C.

Take methylene disulfide [CLM #1]: the cleavage reaction entry was “slow”.
